Key:
[1] = target: MEF2D/HDAC4 protein-protein interactions (Homo sapiens (Human), UniProt Q14814); assay: Mammalian two-hybrid assay, inhibition of MEF2D and HDAC4 protein interactions (luciferase reporter in HeLa cells); type: cell-based; details: HeLa cells co-transfected with GAL4-MEF2D, HDAC4-VP16 and Gal4Luc; overnight treatment; luciferase normalized to Renilla
From the text: Detection of MEF2D and HDAC4 interactions. In this mammalian two-hybrid assay, HDAC4 and MEF2D proteins were used. […] Human epithelial carcinoma cells (HeLa) were co-transfected with the two DNA constructs (GAL4-MEF2D and HDAC4-VP16) and a reporter plasmid (Gal4Luc). […] MEF2D and HDAC4 protein interactions were detected as a result of the GAL4-MEF2D and HDAC4-VP16 protein complex binding a DNA promoter on the reporter plasmid (Gal4Luc) and driving cellular expression of a luciferase gene. The measured luciferase protein signal was proportional to the amount of MEF2D and HDAC4 protein interactions occurring with the cell.
The HDAC4 fragment lacked the catalytic domain so that the deacetylase activity was excluded from the assay.
Detection of inhibition of MEF2D and HDAC4 interactions. Next, the assay was used to test whether the compounds could disrupt the interactions between MEF2D and HDAC4. After co-expressing the GAL4-MEF2D and HDAC4-VP16 DNA constructs and reporter plasmid, the HeLa cells were treated with a test compound (10 μM) overnight. Cells transfected with the positive control GAL4VP16 fusion construct and reporter plasmid were also treated with the test compound (10 μM) overnight. As another control, DMSO was added (but kept below 0.2% V/V) to cells transfected with the positive GAL4VP16 fusion construct or the GAL4-MEF2D and HDAC4-VP16 DNA constructs. A luciferase assay was performed as described above according to the manufacturer's protocol (Promega). The luciferase response was normalized against the Renilla Luciferase as an internal control.
The relative activity and IC50 calculations. […] The relative activity, I, was the ratio of former to later, i.e. X/Y, expressed in percentile. […] The IC50 was the concentration of the compounds when X/Y equals 50.

[2] = target: MEF2D/p300 protein-protein interactions (Homo sapiens (Human), UniProt Q14814); assay: Mammalian two-hybrid assay, inhibition of MEF2D and P300 protein interactions (luciferase reporter in HeLa cells); type: cell-based; details: HeLa cells co-transfected with GAL4-MEF2D, P300-VP16 and Gal4Luc
MEF2D/p300 protein-protein interactions, sequence (Q14814 whole entry, species assumed, the tested form may be a part): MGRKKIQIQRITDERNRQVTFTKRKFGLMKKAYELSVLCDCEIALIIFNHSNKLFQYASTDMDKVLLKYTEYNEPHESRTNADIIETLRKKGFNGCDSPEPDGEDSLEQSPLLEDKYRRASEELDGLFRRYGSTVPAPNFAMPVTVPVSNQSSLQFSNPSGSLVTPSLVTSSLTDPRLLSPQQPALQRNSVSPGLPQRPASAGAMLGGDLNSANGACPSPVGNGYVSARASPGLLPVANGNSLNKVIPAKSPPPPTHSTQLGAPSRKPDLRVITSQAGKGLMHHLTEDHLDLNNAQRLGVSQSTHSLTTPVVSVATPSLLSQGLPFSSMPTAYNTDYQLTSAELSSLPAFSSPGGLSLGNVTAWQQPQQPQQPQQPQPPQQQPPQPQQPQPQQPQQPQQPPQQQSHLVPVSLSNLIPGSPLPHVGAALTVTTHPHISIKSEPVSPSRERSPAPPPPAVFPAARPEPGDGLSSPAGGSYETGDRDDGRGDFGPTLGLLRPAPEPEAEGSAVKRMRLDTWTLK
From the text: Detection of MEF2D and P300 interactions. The same system that was used in Example 19 is used in here to detect MEF2D and P300 interactions. In this assay, two separate DNA constructs were made with MEF2D fused with the GAL4 DNA binding domain (GAL4-MEF2D) and P300 fused with the viral transactivator VP-16 ([…]). Human epithelial carcinoma cells (HeLa) were co-transfected with the two DNA constructs (GAL4-MEF2D and P300-VP16) and a reporter plasmid (Gal4Luc). […] MEF2D and P300 protein interactions were detected as a result of the GAL4-MEF2D and P300-VP16 protein complex binding a DNA promoter on the reporter plasmid (Gal4Luc) and driving cellular expression of a luciferase gene. The measured luciferase protein signal was proportional to the amount of MEF2D and P300 protein interactions occurring with the cell.
The relative activity and IC50 calculations. The IC50 concentrations were calculated in the same manner as described for Example 19.

MEF2D/HDAC4 protein-protein interactions, sequence (Q14814 whole entry, species assumed, the tested form may be a part): as above

SMILES | IC50 [1] [nM] | IC50 [2] [nM]
Nc1ccccc1NC(=O)/C=C/c1cccc(Nc2nccc(-c3cccnc3)n2)c1 [ST48] | > 20000 | –
Nc1ccccc1NC(=O)/C=C/c1cccc(CNc2nc3ccccc3s2)c1 [ST50] | 2550 | –
COc1ccc(-c2csc(NCc3cccc(/C=C/C(=O)Nc4ccccc4N)c3)n2)cc1 [ST51] | > 20000 | –
Nc1ccccc1NC(=O)/C=C/c1cccc(CNc2nc(-c3ccc(F)cc3)cs2)c1 [ST52] | > 20000 | –
Nc1ccccc1NC(=O)/C=C/c1cccc(CNc2cccc3cccnc23)c1 [ST56] | 5220 | –
Nc1ccccc1NC(=O)/C=C/c1cccc(C(=O)Nc2nc(-c3ccncc3)cs2)c1 [ST57] | > 20000 | –
Nc1ccccc1NC(=O)/C=C/c1cccc(C(C(=O)Nc2ccccc2)C(=O)Nc2ccccc2)c1 [ST58] | 3010 | –
Cc1cnc(NCc2cccc(/C=C/C(=O)Nc3ccccc3N)c2)s1 [ST59] | 3130 | –
Cc1nnc(NCc2cccc(/C=C/C(=O)Nc3ccccc3N)c2)s1 [ST60] | 5040 | –
Nc1ccccc1NC(=O)/C=C/c1cccc(CNc2nnc(C(F)(F)F)s2)c1 [ST61] | 8030 | –
Nc1ccccc1NC(=O)/C=C/c1cccc(CNc2nc(C(F)(F)F)cs2)c1 [ST62] | 3040 | –
Cc1nnc(NCc2cccc(/C=C/C(=O)Nc3ccccc3N)c2)o1 [ST65] | 5370 | –
Cc1coc(NCc2cccc(/C=C/C(=O)Nc3ccccc3N)c2)n1 [ST67] | 3060 | –
Nc1ccccc1NC(=O)/C=C/c1cccc(NC(=O)OCc2cccnc2)c1 [ST68] | 2100 | –
O=C(/C=C/c1cccc(C(=O)Nc2nc(-c3ccncc3)cs2)c1)NO [ST69] | 980 | –
O=C(/C=C/c1cccc(CNc2nc(-c3ccncc3)cs2)c1)NO [ST70] | 140 | –
Cc1[nH]c2ccccc2c1CCNc1cccc(/C=C/C(=O)NO)c1 [ST71] | 270 | –
O=C(/C=C/c1cccc(CNc2cccnc2)c1)NO [ST72] | 1550 | –
Cc1nnc(NCc2cccc(/C=C/C(=O)NO)c2)s1 [ST73] | 1150 | –
O=C(/C=C/c1cccc(CNc2nnc(C(F)(F)F)s2)c1)NO [ST74] | 320 | –
O=C(/C=C/c1cccc(CNc2nc(C(F)(F)F)cs2)c1)NO [ST75] | 410 | –
Cc1nnc(NCc2cccc(/C=C/C(=O)NO)c2)o1 [ST76] | > 10000 | –
Cc1coc(NCc2cccc(/C=C/C(=O)NO)c2)n1 [ST77] | 640 | –

SMILES | IC50 [1] [nM] | IC50 [2] [nM]
Cc1csc(NCc2cccc(/C=C/C(=O)NO)c2)n1 [ST78] | > 20000 | –
O=C(/C=C/c1cccc(CNc2nc(C(F)(F)F)co2)c1)NO [ST79] | 280 | –
CCOC(=O)NC(CCCCC(=O)Nc1ccccc1N)C(=O)Nc1cccc(Br)c1 (stereo not shown) [ST80] | 560 | –
CCOC(=O)NC(CCCCC(=O)Nc1ccccc1N)C(=O)Nc1cccc(C(C)(F)F)c1 (stereo not shown) [ST81] | 850 | –
CCOC(=O)NC(CCCCC(=O)Nc1ccccc1N)C(=O)Nc1cccc(SC)c1 (stereo not shown) [ST82] | 500 | –
CCOC(=O)NC(CCCCC(=O)Nc1ccccc1N)C(=O)Nc1cccc(SC(F)(F)F)c1 (stereo not shown) [ST84] | 930 | –
COC(=O)NC(CCCCC(=O)Nc1ccccc1N)C(=O)Nc1cccc(SC)c1 (stereo not shown) [ST85, methyl (7-((2-aminophenyl)amino)-1-((3-(methylthio)phenyl)amino)-1,7-dioxoheptan-2-yl)carbamate] | 470 | < 150
CCOC(=O)NC(CCCCC(=O)Nc1cccc(Br)c1)C(=O)Nc1ccccc1N (stereo not shown) [ST86] | > 20000 | –
Nc1ccccc1NC(=O)CCCCC(N)C(=O)Nc1cccc(Br)c1 (stereo not shown) [ST87] | 3060 | –
CCCCNC(CCCCC(=O)Nc1ccccc1N)C(=O)Nc1cccc(Br)c1 (stereo not shown) [ST88] | 7320 | –
CCC(=O)NC(CCCCC(=O)Nc1ccccc1N)C(=O)Nc1cccc(Br)c1 (stereo not shown) [ST89] | 770 | 71
CCCC(=O)NC(CCCCC(=O)Nc1ccccc1N)C(=O)Nc1cccc(Br)c1 (stereo not shown) [ST90] | 460 | –
CCOC(=O)NC(CCCCC(=O)Nc1ccccc1N)C(=O)Nc1ccccc1 (stereo not shown) [ST91] | 1460 | –
Nc1ccccc1NC(=O)CCCCC(NC(=O)c1ccccc1)C(=O)Nc1cccc(Br)c1 (stereo not shown) [ST92, N^7-(2-aminophenyl)-2-benzamido-N^1-(3-bromophenyl)heptanediamide] | 810 | 470
CCOC(=O)N[C@H](CCCCC(=O)Nc1ccccc1N)C(=O)Nc1cccc(Br)c1 [ST95] | 1040 | –
COC(=O)N[C@H](CCCCC(=O)Nc1ccccc1N)C(=O)Nc1cccc(Br)c1 [ST96] | 1370 | –
CC(C)OC(=O)N[C@@H](CCCCC(=O)Nc1ccccc1N)C(=O)Nc1cccc(Br)c1 [ST97] | 450 | –
Nc1ccccc1NC(=O)CCCC[C@H](NC(=O)CC1CC1)C(=O)Nc1cccc(Br)c1 [ST98] | 320 | –
Nc1ccccc1NC(=O)CCCC[C@H](NC(=O)OCC1CC1)C(=O)Nc1cccc(Br)c1 [ST99] | 590 | –
CCOC(=O)N[C@@H](CCCCC(=O)Nc1ccccc1N)C(=O)Nc1cccc(OCC)c1 [ST100, (S)-ethyl (7-((2-aminophenyl)amino)-1-((3-ethoxyphenyl)amino)-1,7-dioxoheptan-2-yl)carbamate] | 210 | –
CC(C)CC(=O)N[C@@H](CCCCC(=O)Nc1ccccc1N)C(=O)Nc1cccc(Br)c1 [ST101] | 350 | –
COC(=O)N[C@@H](CCCCC(=O)Nc1ccccc1N)C(=O)Nc1cccc(Br)c1 [ST103] | 350 | –
CCN1CCN(C(CCCCC(=O)Nc2ccccc2N)C(=O)Nc2cccc(Br)c2)C1=O (stereo not shown) [ST105] | 1480 | –

SMILES | IC50 [1] [nM] | IC50 [2] [nM]
CC(C)(C)OC(=O)N[C@@H](CCCCC(=O)Nc1ccccc1N)C(=O)Nc1cccc(Br)c1 [ST106] | 1110 | –
CCOC(=O)N[C@@H](CCCCC(=O)NO)C(=O)Nc1cccc(Br)c1 [ST107] | 440 | –
CCCC(=O)N[C@@H](CCCCC(=O)NO)C(=O)Nc1cccc(Br)c1 [ST108] | 400 | –
O=C(CCCCC(NC(=O)c1cccnc1)C(=O)Nc1cccc(Br)c1)NO (stereo not shown) [ST109] | 680 | –
CCCC(=O)NC(CCCCC(=O)NO)C(=O)Nc1cccc(Br)c1 (stereo not shown) [ST110] | 420 | –
O=C(CCCC[C@@H](NC(=O)c1ccccn1)C(=O)Nc1cccc(Br)c1)NO [ST111] | 940 | –
CCOC(=O)N[C@H](CCCCC(=O)NO)C(=O)Nc1cccc(Br)c1 [ST112] | 610 | –
CCOC(=O)NC(CCCCC(=O)NO)C(=O)Nc1cccc(Br)c1 (stereo not shown) [ST113] | 260 | –
CCC(=O)CNC(CCCCC(=O)NO)C(=O)Nc1cccc(Br)c1 (stereo not shown) [ST114] | 1250 | –
CCOC(=O)NC(CCCCC(=O)Nc1ccccc1N)C(=O)Nc1nc(-c2ccncc2)cs1 (stereo not shown) [ST115] | 540 | –
CCOC(=O)NC(CCCCC(=O)Nc1ccccc1N)C(=O)Nc1cccc2cccnc12 (stereo not shown) [ST117] | 940 | –
CCOC(=O)NC(CCCCC(=O)Nc1ccccc1N)C(=O)Nc1ccc2ncccc2c1 (stereo not shown) [ST118] | 490 | –
Nc1ccccc1NC(=O)CCCCC(NC(=O)c1ccccc1)C(=O)Nc1cccnc1 (stereo not shown) [ST120] | 1560 | –
Nc1ccccc1NC(=O)CCCCC(NC(=O)c1ccccc1)C(=O)Nc1ccncc1 (stereo not shown) [ST121] | 2750 | –
Nc1ccccc1NC(=O)CCCCC(NC(=O)c1ccccn1)C(=O)Nc1cccnc1 (stereo not shown) [ST122] | 1620 | –
CCOC(=O)NC(CCCCC(=O)Nc1ccccc1N)C(=O)Nc1cccnc1 (stereo not shown) [ST123] | 2000 | –
CCOC(=O)NC(CCCCC(=O)Nc1ccccc1N)C(=O)Nc1cncc(OC)c1 (stereo not shown) [ST124] | 1530 | –
CCOC(=O)NC(CCCCC(=O)Nc1ccccc1N)C(=O)Nc1ccncc1 (stereo not shown) [ST125] | 2440 | –
CCOC(=O)NC(CCCCC(=O)Nc1ccccc1N)C(=O)Nc1ccccn1 (stereo not shown) [ST126] | 3680 | –
CCOC(=O)NC(CCCCC(=O)Nc1ccccc1N)C(=O)Nc1cncc(OCC)c1 (stereo not shown) [ST127] | 1840 | –
O=C(CCCC[C@@H](NC(=O)c1ccccc1)C(=O)NC1CC1)NO [ST128] | 2510 | –

Reference: patent US11230524B2, “Myocyte enhancer factor 2 (MEF2) modulators” (STANDARD LLC, priority 2017, dated 2022)
